Data published in patent US10245261B2, “Substituted indol-5-ol derivatives and their therapeutic applications” (NantBioScience, Inc., priority 2013, dated 2019).

Experiments:
Experiment in all cases: KinaseProfiler kinase assay
Format in all cases: biochemical
PKG1β(h) = PKG1β(h) (Homo sapiens, UniProt Q13976)
How it was run: (§1)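 Buffer 20 mM MOPS, 1 mM EDTA, 0.01% Brij-35, 5% glycerol, 0.1% β-mercaptoethanol, 1 mg/mL BSA for compound dilution; reaction at pH 7.0 with [γ-33P]ATP, 40 min RT; filtermat/scintillation read-out; 0%/100% set by no-kinase and phosphopeptide wells.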

IGF-1R(h) = IGF-1R(h) (Homo sapiens, UniProt P08069)
How it was run: as §1

NEK11(h) = NEK11(h) (Homo sapiens, UniProt Q8NG66)
How it was run: as §1

PTK5(h) = PTK5(h) (Homo sapiens, UniProt P42685)
How it was run: as §1

PEK(h) = PEK(h) (Homo sapiens, UniProt Q9NZJ5)
How it was run: as §1

DMPK(h) = DMPK(h) (Homo sapiens, UniProt Q09013)
How it was run: as §1

CDK6/cyclinD3(h) = CDK6/cyclinD3(h) (Homo sapiens, UniProt Q00534)
How it was run: as §1

PKG1α(h) = PKG1α(h) (Homo sapiens, UniProt Q13976)
How it was run: as §1

HIPK2(h) = HIPK2(h) (Homo sapiens, UniProt Q9H2X6)
How it was run: as §1

ASK1(h) = ASK1(h) (Homo sapiens, UniProt Q99683)
How it was run: as §1

PKCθ(h) = PKCθ(h) (Homo sapiens, UniProt Q04759)
How it was run: as §1

TSSK1(h) = TSSK1(h) (Homo sapiens, UniProt Q9BXA7)
How it was run: as §1

PRK2(h) = PRK2(h) (Homo sapiens, UniProt Q16513)
How it was run: as §1

EphA2(h) = EphA2(h) (Homo sapiens, UniProt P29317)
How it was run: as §1

MEK1(h) = MEK1(h) (Homo sapiens, UniProt Q02750)
How it was run: as §1

PAK2(h) = PAK2(h) (Homo sapiens, UniProt Q13177)
How it was run: as §1

Axl(h) = Axl(h) (Homo sapiens, UniProt P30530)
How it was run: as §1

PIP5K1α(h) = PIP5K1α(h) (Homo sapiens, UniProt Q99755)
How it was run: as §1

PhKγ2(h) = PhKγ2(h) (Homo sapiens, UniProt P15735)
How it was run: as §1

MSSK1(h) = MSSK1(h) (Homo sapiens, UniProt Q9UPE1)
How it was run: as §1

Blk(h) = Blk(h) (Homo sapiens, UniProt P51451)
How it was run: as §1

IRAK1(h) = IRAK1(h) (Homo sapiens, UniProt P51617)
How it was run: as §1

DYRK2(h) = DYRK2(h) (Homo sapiens, UniProt Q92630)
How it was run: as §1

Aurora-C(h) = Aurora-C(h) (Homo sapiens, UniProt Q9UQB9)
How it was run: as §1

ALK4(h) = ALK4(h) (Homo sapiens, UniProt P36896)
How it was run: as §1

ACK1(h) = ACK1(h) (Homo sapiens, UniProt Q07912)
How it was run: as §1

FAK(h) = FAK(h) (Homo sapiens, UniProt Q05397)
How it was run: as §1

MKK4(m) = MKK4(m) (Mus musculus, UniProt P47809)
How it was run: as §1

SGK2(h) = SGK2(h) (Homo sapiens, UniProt Q9HBY8)
How it was run: as §1

PIP4K2α(h) = PIP4K2α(h) (Homo sapiens, UniProt P48426)
How it was run: as §1

SAPK2b(h) = SAPK2b(h) (Homo sapiens, UniProt Q15759)
How it was run: as §1

MAPKAP-K3(h) = MAPKAP-K3(h) (Homo sapiens, UniProt Q16644)
How it was run: as §1

Chain of PKG1β(h) (Q13976 1-686 isoform Q13976-2): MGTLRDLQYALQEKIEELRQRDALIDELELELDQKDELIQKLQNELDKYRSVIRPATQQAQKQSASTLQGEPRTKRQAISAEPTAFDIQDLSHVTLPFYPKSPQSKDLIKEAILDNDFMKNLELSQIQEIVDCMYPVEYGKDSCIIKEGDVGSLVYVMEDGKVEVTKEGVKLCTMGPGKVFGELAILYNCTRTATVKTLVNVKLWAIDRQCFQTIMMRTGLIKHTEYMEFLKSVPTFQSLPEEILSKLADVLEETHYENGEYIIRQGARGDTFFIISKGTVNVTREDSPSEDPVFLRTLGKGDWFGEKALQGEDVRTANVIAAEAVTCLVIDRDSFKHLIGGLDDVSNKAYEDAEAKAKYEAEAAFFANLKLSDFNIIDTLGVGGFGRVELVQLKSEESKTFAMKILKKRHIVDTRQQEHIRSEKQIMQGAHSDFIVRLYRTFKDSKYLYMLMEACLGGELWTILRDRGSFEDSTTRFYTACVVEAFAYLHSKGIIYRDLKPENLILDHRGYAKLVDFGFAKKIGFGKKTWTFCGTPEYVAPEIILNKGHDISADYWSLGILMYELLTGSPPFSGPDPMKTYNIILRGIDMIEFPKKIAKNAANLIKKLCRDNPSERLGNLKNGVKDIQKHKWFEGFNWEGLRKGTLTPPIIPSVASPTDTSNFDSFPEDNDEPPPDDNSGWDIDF
Chain of Aurora-C(h) (Q9UQB9 whole entry): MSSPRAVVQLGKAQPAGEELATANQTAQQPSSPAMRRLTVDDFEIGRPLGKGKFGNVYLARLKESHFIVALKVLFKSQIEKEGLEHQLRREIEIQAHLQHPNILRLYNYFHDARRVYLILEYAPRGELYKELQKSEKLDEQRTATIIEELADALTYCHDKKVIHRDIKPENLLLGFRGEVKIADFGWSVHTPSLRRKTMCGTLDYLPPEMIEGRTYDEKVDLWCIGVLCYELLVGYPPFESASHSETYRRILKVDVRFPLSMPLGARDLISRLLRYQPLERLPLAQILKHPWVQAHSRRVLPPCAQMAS
Chain of DYRK2(h) (Q92630 whole entry): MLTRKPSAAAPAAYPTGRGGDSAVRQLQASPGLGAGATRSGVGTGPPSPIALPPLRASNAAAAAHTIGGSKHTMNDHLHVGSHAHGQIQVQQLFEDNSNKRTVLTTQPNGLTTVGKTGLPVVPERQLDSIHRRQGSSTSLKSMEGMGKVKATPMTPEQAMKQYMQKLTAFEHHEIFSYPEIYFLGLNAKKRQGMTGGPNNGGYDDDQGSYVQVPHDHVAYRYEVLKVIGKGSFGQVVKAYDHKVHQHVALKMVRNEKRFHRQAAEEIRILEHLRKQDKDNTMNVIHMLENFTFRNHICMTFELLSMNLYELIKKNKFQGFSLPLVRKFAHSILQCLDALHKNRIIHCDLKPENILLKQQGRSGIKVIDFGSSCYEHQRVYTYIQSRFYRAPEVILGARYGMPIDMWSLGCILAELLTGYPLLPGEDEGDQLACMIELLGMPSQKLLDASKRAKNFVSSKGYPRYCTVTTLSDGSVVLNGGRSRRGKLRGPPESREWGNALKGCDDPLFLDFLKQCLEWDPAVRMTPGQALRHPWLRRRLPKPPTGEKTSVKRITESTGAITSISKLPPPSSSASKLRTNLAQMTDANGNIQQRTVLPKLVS
Chain of PEK(h) (Q9NZJ5 30-1116): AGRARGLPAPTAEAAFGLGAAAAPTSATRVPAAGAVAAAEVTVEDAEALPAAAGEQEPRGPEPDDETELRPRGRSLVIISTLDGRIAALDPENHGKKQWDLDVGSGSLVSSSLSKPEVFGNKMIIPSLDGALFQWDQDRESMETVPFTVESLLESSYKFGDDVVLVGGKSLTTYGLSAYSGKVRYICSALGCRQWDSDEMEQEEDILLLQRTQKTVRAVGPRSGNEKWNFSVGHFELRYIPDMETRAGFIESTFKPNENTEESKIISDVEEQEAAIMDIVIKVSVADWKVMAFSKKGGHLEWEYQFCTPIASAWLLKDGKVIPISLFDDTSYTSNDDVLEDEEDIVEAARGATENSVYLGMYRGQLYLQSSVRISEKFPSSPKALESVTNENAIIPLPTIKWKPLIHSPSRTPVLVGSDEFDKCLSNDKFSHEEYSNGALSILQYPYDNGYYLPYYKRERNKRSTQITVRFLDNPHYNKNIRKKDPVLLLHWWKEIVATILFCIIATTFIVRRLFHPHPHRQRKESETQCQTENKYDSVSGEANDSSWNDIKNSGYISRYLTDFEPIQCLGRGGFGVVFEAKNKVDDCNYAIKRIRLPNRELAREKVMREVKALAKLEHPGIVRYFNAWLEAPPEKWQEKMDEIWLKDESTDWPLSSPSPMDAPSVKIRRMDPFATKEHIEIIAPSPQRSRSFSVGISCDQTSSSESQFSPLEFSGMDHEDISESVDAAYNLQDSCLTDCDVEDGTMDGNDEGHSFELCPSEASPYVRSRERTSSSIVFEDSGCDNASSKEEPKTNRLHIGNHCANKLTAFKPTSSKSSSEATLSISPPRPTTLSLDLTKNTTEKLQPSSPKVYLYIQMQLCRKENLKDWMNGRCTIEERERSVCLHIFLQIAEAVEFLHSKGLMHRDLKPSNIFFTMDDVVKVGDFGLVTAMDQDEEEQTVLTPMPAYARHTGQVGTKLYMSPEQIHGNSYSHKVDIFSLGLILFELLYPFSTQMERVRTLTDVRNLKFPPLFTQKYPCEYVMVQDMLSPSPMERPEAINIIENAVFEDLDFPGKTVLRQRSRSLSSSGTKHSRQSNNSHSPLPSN
Chain of DMPK(h) (Q09013 whole entry): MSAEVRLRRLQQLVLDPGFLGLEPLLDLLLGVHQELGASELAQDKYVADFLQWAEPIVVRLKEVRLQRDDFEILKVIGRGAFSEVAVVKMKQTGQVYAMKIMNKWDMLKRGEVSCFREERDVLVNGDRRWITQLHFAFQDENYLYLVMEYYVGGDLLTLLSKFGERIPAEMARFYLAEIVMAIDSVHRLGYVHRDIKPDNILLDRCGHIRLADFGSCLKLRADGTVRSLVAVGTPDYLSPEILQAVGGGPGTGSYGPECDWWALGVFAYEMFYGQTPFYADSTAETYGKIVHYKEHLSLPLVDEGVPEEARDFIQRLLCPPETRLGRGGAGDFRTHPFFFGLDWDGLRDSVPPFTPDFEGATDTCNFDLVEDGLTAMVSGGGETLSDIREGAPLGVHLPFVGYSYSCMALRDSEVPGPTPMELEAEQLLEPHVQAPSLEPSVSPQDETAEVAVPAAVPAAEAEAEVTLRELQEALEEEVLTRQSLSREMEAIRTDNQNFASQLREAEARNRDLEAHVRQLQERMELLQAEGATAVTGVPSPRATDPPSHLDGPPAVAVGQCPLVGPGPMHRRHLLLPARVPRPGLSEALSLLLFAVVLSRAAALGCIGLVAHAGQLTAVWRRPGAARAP
Chain of IGF-1R(h) (P08069 31-1367): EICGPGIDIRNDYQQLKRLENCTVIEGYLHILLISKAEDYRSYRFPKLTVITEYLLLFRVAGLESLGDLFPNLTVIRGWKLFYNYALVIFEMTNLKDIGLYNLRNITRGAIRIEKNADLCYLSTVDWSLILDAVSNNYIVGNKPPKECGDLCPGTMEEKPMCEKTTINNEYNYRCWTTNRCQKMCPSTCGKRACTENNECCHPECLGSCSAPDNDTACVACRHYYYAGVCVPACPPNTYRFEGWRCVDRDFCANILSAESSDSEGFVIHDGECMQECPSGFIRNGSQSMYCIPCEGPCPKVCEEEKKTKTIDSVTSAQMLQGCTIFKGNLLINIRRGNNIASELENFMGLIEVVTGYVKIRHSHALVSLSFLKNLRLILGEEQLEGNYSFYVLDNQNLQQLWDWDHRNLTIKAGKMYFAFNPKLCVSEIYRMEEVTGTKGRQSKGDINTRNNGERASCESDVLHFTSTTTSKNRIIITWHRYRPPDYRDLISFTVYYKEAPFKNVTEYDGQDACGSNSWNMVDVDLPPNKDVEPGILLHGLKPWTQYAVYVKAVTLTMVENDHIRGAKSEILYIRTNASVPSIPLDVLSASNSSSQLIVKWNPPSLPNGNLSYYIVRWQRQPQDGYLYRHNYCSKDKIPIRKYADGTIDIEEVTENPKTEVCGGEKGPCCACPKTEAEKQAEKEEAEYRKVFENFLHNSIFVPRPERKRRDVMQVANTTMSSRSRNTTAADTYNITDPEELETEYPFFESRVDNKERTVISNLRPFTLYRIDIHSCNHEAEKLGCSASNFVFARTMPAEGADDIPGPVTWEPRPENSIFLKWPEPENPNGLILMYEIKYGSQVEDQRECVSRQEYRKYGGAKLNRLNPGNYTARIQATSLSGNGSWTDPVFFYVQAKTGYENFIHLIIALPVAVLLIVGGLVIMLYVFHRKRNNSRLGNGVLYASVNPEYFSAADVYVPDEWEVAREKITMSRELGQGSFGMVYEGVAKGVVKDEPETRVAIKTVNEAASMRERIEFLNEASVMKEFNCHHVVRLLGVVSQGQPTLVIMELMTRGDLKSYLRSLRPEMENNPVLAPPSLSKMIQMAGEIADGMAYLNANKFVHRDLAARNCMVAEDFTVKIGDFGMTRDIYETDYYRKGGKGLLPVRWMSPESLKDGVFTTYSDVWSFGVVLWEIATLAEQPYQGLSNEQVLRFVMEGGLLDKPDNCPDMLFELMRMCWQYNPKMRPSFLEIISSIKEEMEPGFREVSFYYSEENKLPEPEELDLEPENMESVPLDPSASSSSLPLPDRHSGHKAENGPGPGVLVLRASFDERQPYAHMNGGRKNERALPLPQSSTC
Chain of MAPKAP-K3(h) (Q16644 whole entry): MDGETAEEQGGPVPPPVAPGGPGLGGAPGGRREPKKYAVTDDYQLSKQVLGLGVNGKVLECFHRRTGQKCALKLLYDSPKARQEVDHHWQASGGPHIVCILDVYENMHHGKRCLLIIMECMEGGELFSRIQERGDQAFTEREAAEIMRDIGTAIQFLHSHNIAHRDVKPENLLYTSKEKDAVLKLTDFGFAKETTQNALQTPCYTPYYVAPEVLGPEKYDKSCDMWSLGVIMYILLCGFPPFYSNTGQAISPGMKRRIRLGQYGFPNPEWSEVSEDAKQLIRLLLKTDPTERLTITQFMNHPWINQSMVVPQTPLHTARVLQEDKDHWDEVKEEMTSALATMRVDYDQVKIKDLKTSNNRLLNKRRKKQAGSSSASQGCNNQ

With `Cc1cc2c(F)c(Oc3nc(Nc4cc(C5CC5)[nH]n4)cc(N4CCN(C)CC4)n3)ccc2[nH]1` [Compound 10] the inhibition at 0.1 µM (PKG1β(h)) was -11%, the inhibition at 0.1 µM (IGF-1R(h)) was 78% and the inhibition at 0.1 µM (NEK11(h)) was -8%. For the same molecule, the inhibition at 0.1 µM (PTK5(h)) was 72%, the inhibition at 0.1 µM (PEK(h)) was -4% and the inhibition at 0.1 µM (DMPK(h)) was -4%. For the same molecule, the inhibition at 0.1 µM (CDK6/cyclinD3(h)) was -5%, the inhibition at 0.1 µM (PKG1α(h)) was -25% and the inhibition at 0.1 µM (HIPK2(h)) was -2%. The inhibition at 0.1 µM (ASK1(h)) was -14%, the inhibition at 0.1 µM (PKCθ(h)) was 21% and the inhibition at 0.1 µM (TSSK1(h)) was 4%. The inhibition at 0.1 µM (PRK2(h)) was 51%, the inhibition at 0.1 µM (EphA2(h)) was 96% and the inhibition at 0.1 µM (MEK1(h)) was 14%. For the same molecule, the inhibition at 0.1 µM (PAK2(h)) was 16%, the inhibition at 0.1 µM (Axl(h)) was 70% and the inhibition at 0.1 µM (PIP5K1α(h)) was -2%. The inhibition at 0.1 µM (PhKγ2(h)) was 2%, the inhibition at 0.1 µM (MSSK1(h)) was 22% and the inhibition at 0.1 µM (Blk(h)) was 94%. The inhibition at 0.1 µM (IRAK1(h)) was -2%, the inhibition at 0.1 µM (DYRK2(h)) was -6% and the inhibition at 0.1 µM (Aurora-C(h)) was 54%. For the same molecule, the inhibition at 0.1 µM (ALK4(h)) was 77%, the inhibition at 0.1 µM (ACK1(h)) was 99% and the inhibition at 0.1 µM (FAK(h)) was 22%. For the same molecule, the inhibition at 0.1 µM (MKK4(m)) was -2%, the inhibition at 0.1 µM (SGK2(h)) was -41% and the inhibition at 0.1 µM (PIP4K2α(h)) was 1%. For the same molecule, the inhibition at 0.1 µM (SAPK2b(h)) was -2% and the inhibition at 0.1 µM (MAPKAP-K3(h)) was 4%.
`Cc1cc2c(F)c(Oc3nc(Nc4cc(C5CC5)[nH]n4)cc(N4CCNCC4)n3)ccc2[nH]1` [Compound 11, N-(5-cyclopropyl-1H-pyrazol-3-yl)-2-((4-fluoro-2-methyl-1H-indol-5-yl)oxy)-6-(piperazin-1-yl)pyrimidin-4-amine] showed an inhibition at 0.1 µM (PKG1β(h)) of -2%, an inhibition at 0.1 µM (IGF-1R(h)) of 62% and an inhibition at 0.1 µM (NEK11(h)) of -6%. It also gave an inhibition at 0.1 µM (PTK5(h)) of 72%, an inhibition at 0.1 µM (PEK(h)) of -8% and an inhibition at 0.1 µM (DMPK(h)) of -16%. It also gave an inhibition at 0.1 µM (CDK6/cyclinD3(h)) of 11%, an inhibition at 0.1 µM (PKG1α(h)) of -5% and an inhibition at 0.1 µM (HIPK2(h)) of 0%. The inhibition at 0.1 µM (ASK1(h)) was -17%, the inhibition at 0.1 µM (PKCθ(h)) was -16% and the inhibition at 0.1 µM (TSSK1(h)) was 3%. It also gave an inhibition at 0.1 µM (PRK2(h)) of 51%, an inhibition at 0.1 µM (EphA2(h)) of 98% and an inhibition at 0.1 µM (MEK1(h)) of 1%. For the same molecule, the inhibition at 0.1 µM (PAK2(h)) was 0%, the inhibition at 0.1 µM (Axl(h)) was 62% and the inhibition at 0.1 µM (PIP5K1α(h)) was -3%. For the same molecule, the inhibition at 0.1 µM (PhKγ2(h)) was 13%, the inhibition at 0.1 µM (MSSK1(h)) was 0% and the inhibition at 0.1 µM (Blk(h)) was 94%. For the same molecule, the inhibition at 0.1 µM (IRAK1(h)) was -9%, the inhibition at 0.1 µM (DYRK2(h)) was -1% and the inhibition at 0.1 µM (Aurora-C(h)) was 67%. The inhibition at 0.1 µM (ALK4(h)) was 81%, the inhibition at 0.1 µM (ACK1(h)) was 95% and the inhibition at 0.1 µM (FAK(h)) was 22%. It also gave an inhibition at 0.1 µM (MKK4(m)) of -28%, an inhibition at 0.1 µM (SGK2(h)) of -12% and an inhibition at 0.1 µM (PIP4K2α(h)) of -4%. For the same molecule, the inhibition at 0.1 µM (SAPK2b(h)) was -6% and the inhibition at 0.1 µM (MAPKAP-K3(h)) was -15%.
